Values after ≈ are worked out from the molar mass of the structure shown.
Legend:
[1] = test system: S. aureus FDA209P; test: Serial passaging in increasing concentrations of antimicrobials; type: cell-based, Staphylococcus aureus; settings: for The highest concentration of antibiotic allowing growth: Mueller-Hinton II broth (CaCl2 50 mg/L), 37 °C, 24 h
Protocol: Gausemycin A-resistant variant was obtained by serial passaging as described previously (Pollard et al., [2012]). Isolated colonies of S. aureus FDA209P were inoculated into Mueller-Hinton II broth (CaCl2 50 mg/L) containing twofold dilutions of gausemycin A. The cultures were incubated at 37 °C with aeration for 24 h. After incubation, bacterial cells growing at the highest concentration of gausemycin A (below the MIC) were harvested and used for the next passage. The process was repeated for 20 passages. The dynamic of the developing resistance to gausemycin A was evaluated in comparison with daptomycin and ramoplanin. The experiments were performed in two independent series on separate days with three technical replicates each.

[2] = test system: S. aureus 5812R; test: microbe, parasite or virus in culture; type: cell-based, Staphylococcus aureus; settings: for MIC: S. aureus 5812R, broth microdilution (CLSI), 10^6 CFU/ml, 24 h, 37 °C, absorbance at 600 nm; for Change of MIC / resistance of S. aureus 5812R compared to parent strain S. aureus FDA209P: ratio of MIC for 5812R and FDA209P
Protocol: (§1) Minimal inhibitory concentration (MIC) was determined as previously described in Fuchs et al. ([2000]), following the Clinical and Laboratory Standards Institute (CLSI) guidelines for broth microdilution MIC assay. The bacteria were incubated in a 96-well microtiter plate (Eppendorf, Germany) containing 90 μL of inoculum prepared in growth media at 10^6 CFU/ml with 10 μL of twofold dilutions of the antibiotics. The results were evaluated after 24 h of cultivation at 37 °C. The bacterial growth was assessed by scanning the absorbance data at 600 nm obtained by spectrophotometer (Multiscan GO, Thermo Fisher Scientific, US).

[3] = test system: S. aureus FDA209P; test: microbe, parasite or virus in culture; type: cell-based, Staphylococcus aureus; settings: broth microdilution (CLSI), 10^6 CFU/ml, 24 h, 37 °C, absorbance at 600 nm
Protocol: as §1

[4] = test system: S. aureus 5812R; test: microbe, parasite or virus in culture; type: cell-based, Staphylococcus aureus; settings: S. aureus 5812R; single antibiotic, 10^6 CFU/mL, 24 h, 37 °C
Protocol: The effect of gausemycin A in combination with other antibiotics was evaluated using the checkerboard technique with modifications (Nwabor et al., [2021]). Briefly, 80 μL of diluted bacterial suspension (10^6 CFU/mL) was added to wells containing 10 μL of sub-inhibitory concentrations of gausemycin A and 10 μL of sub-inhibitory concentrations of conventional antibiotics. The plates were incubated for 24 h at 37°C. The effects of the antimicrobial combination were defined according to the fractional inhibitory concentration index (FICI). The ΣFICs were calculated as follows:
where FIC A is the MIC of drug A in the combination/MIC of drug A alone; and FIC B is the MIC of drug B in the combination/MIC of drug B alone. The result was interpreted as FIC ≤ 0.5 = Synergism, FIC > 0.5 to 1 = additivity, FIC >1 to 2 = indifference, and FIC >2 antagonism.

[5] = test system: biofilm-embedded staphylococcal cells; settings: ref Vasilchenko et al., 2020; cited from earlier work
Excerpt: These lipoglycopeptides were firstly described in 2016 (Lapchinskaya et al., [2016]), and consequently named gausemycins A and B (Tyurin et al., [2021]). Gausemycin A is a macrocyclic peptide containing 14 amino acids, where tyrosine is glycosylated with arabinose, which makes gausemycin A unique among natural peptide antibiotics (Tyurin et al., [2021]). The closest structurally related compounds are depsipeptides (daptomycin, taromycins, and cadazides) and cyclopeptides ( ...

[6] = test system: Staphylococcus aureus 5812R; test: ID32 Staph strip, resistance (novobiocin); type: cell-based; settings: colorimetric test
Protocol: (§2) The biochemical properties were assayed using the ID32 Staph strip (BioMerieux, France), which consists of a set of wells containing dried biochemical media for colorimetric tests.

[7] = test system: Staphylococcus aureus FDA209 P; test: ID32 Staph strip, resistance (novobiocin); type: cell-based; settings: colorimetric test
Protocol: as §2

[8] = test system: S. aureus 5812R; test: Membrane integrity assay (SYTO 9 / propidium iodide); type: cell-based, Staphylococcus aureus; settings: 10 mM HEPES, 1.25 mM Ca2+, 10^8 CFU/ml, end-point 10 min
Protocol: (§3) Membrane integrity was assessed using the fluorescent probes SYTO 9 and propidium iodide (PI) (LIVE/DEAD BacLight Bacterial Viability Kit, Molecular Probes, USA). The test strains were grown to the mid-log phase. The obtained cultures were centrifuged at 10,000 rpm for 10 min, the supernatant was discarded and the pellet was dispersed in 10 mM HEPES buffer supplemented with 1.25 mM Ca ^2+ to an optical density of 0.2 (OD 600) that corresponded to 10^8 CFU/ml. Bacterial cells in 50 μl were transferred to a 96-well microtiter plate (Eppendorf, US). SYTO 9 fluorescence kinetics was measured using Fluoroscan Ascent FL plate reader (Thermo Scientific, US) at 485 nm excitation and 535 nm of emission wavelengths as described earlier (Vasilchenko et al., [2020]). The assay was performed twice in three technical replicates.
(§4) Microscopy was performed using a Zeiss Axio Imager A2 fluorescent microscope (Carl Zeiss, Germany) equipped with filter sets useful for simultaneous viewing of SYTO 9 and PI stains.

[9] = test system: S. aureus FDA209P; test: as above; type: cell-based, Staphylococcus aureus; settings: 10 mM HEPES, 1.25 mM Ca2+, 10^8 CFU/ml, end-point 10 min
Protocol: as §3, §4

[10] = test system: S. aureus 5812R; test: Resistance stability testing (passaging in drug-free medium); type: cell-based, Staphylococcus aureus; settings: 17 passages in gausemycin A-free Muller-Hinton broth
Protocol: The overnight culture of S. aureus 5812R was sub-cultured in gausemycin A-free Muller-Hinton broth and incubated overnight at 37°C with shaking. The obtained culture was evaluated on susceptibility to gausemycin A in the MIC assay as described previously. Passaging in the drug-free medium was repeated 17 times. The experiments were performed in two independent series on separate days with three technical replicates each.

| Compound | The highest concentration of antibiotic allowing growth ([1]; passage 1) [µg/mL] | The highest concentration of antibiotic allowing growth ([1]; passage 2) [µg/mL] | The highest concentration of antibiotic allowing growth ([1]; passage 3) [µg/mL] | The highest concentration of antibiotic allowing growth ([1]; passage 4) [µg/mL] | The highest concentration of antibiotic allowing growth ([1]; passage 5) [µg/mL] | The highest concentration of antibiotic allowing growth ([1]; passage 6) [µg/mL] | The highest concentration of antibiotic allowing growth ([1]; passage 7) [µg/mL] | The highest concentration of antibiotic allowing growth ([1]; passage 8) [µg/mL] | The highest concentration of antibiotic allowing growth ([1]; passage 9) [µg/mL] | The highest concentration of antibiotic allowing growth ([1]; passage 10) [µg/mL] | The highest concentration of antibiotic allowing growth ([1]; passage 11) [µg/mL] | The highest concentration of antibiotic allowing growth ([1]; passage 12) [µg/mL] | The highest concentration of antibiotic allowing growth ([1]; passage 13) [µg/mL] | The highest concentration of antibiotic allowing growth ([1]; passage 14) [µg/mL] | The highest concentration of antibiotic allowing growth ([1]; passage 15) [µg/mL] | The highest concentration of antibiotic allowing growth ([1]; passage 16) [µg/mL] | The highest concentration of antibiotic allowing growth ([1]; passage 17) [µg/mL] | The highest concentration of antibiotic allowing growth ([1]; passage 18) [µg/mL] | The highest concentration of antibiotic allowing growth ([1]; passage 19) [µg/mL] | The highest concentration of antibiotic allowing growth ([1]; passage 20) [µg/mL] | further results |
| --- | --- | --- | --- | --- | --- | --- | --- | --- | --- | --- | --- | --- | --- | --- | --- | --- | --- | --- | --- | --- | --- |
| CCCCCCCCCC(=O)N[C@@H](Cc1c[nH]c2ccccc12)C(=O)N[C@H](CC(N)=O)C(=O)N[C@@H](CC(=O)O)C(=O)N[C@@H]1C(=O)NCC(=O)N[C@@H](CCCN)C(=O)N[C@@H](CC(=O)O)C(=O)N[C@H](C)C(=O)N[C@@H](CC(=O)O)C(=O)NCC(=O)N[C@H](CO)C(=O)N[C@@H]([C@H](C)CC(=O)O)C(=O)N[C@@H](CC(=O)c2ccccc2N)C(=O)O[C@@H]1C [Daptomycin] | 1.25 | 1.25 | 1.25 | 1.25 | 1.25 | 1.25 | 1.25 | 1.25 | 1.25 | 1.25 | 1.25 | 2.50 | 2.50 | 2.50 | 2.50 | 2.50 | 2.50 | 2.50 | 2.50 | 5.0 | MIC [2]: 5.0 µg/mL (≈ 3.09 µM); Change of MIC / resistance of S. aureus 5812R compared to parent strain S. aureus FDA209P [2]: 4 fold; Cross-resistance of S. aureus 5812R ([2]; susceptibility testing of gausemycin A-resistant strain): cross-resistance; MIC [3]: 1.25 µg/mL (≈ 0.771 µM); MIC alone [4]: 5.0 µg/mL; Inhibition of biofilm-embedded staphylococcal cells [5]: inactive |
| CO[C@@H]1[C@@H](OC(N)=O)[C@@H](O)[C@H](Oc2ccc3c(O)c(NC(=O)c4ccc(O)c(CC=C(C)C)c4)c(=O)oc3c2C)OC1(C)C [novobiocin] | – | – | – | – | – | – | – | – | – | – | – | – | – | – | – | – | – | – | – | – | Resistance (Novobiocin) [6]: Positive; Resistance (Novobiocin) [7]: Positive |
| Gausemycin A | 2.5 | 2.5 | 5 | 5 | 5 | 5 | 5 | 10 | 20 | 40 | 40 | 40 | 50 | 100 | 100 | 100 | 150 | 200 | 200 | >200 | Number of passages within which resistance was formed ([1]; serial passages with sub-inhibitory concentrations): ≤ 20 passages; MIC [2]: >200 µg/mL; Change of MIC / resistance of S. aureus 5812R compared to parent strain S. aureus FDA209P [2]: 80 fold; MIC [3]: 2.5 µg/mL; Quenching of SYTO9 fluorescence [8]: not achieved at all taken concentrations; Concentration giving complete quenching of SYTO9 fluorescence [9]: 50 µg/mL; Stability of resistance (MIC after passaging in drug-free medium) [10]: did not change the MIC value; Inhibition of biofilm-embedded staphylococcal cells [5]: able to inhibit |

— PMC9558223, “Staphylococcus aureus is able to generate resistance to novel lipoglycopeptide antibiotic gausemycin A” (Frontiers in Microbiology, 2022)
